# Experimental data taken from ChEMBL document CHEMBL4507320, “Data for DCP probe NVS-MALT1” (2021).
# Experiments:
# [1] = tested on: Tyrosine-protein kinase ABL1 (Homo sapiens), P00519 [T315I]; conditions: Compound concentration 1000.0 nM
# [2] = target: Tyrosine-protein kinase receptor UFO (Homo sapiens) (UniProt P30530); conditions: Compound concentration 1000.0 nM
# [3] = target: BMP-2-inducible protein kinase (Homo sapiens) (UniProt Q9NSY1); conditions: Compound concentration 1000.0 nM
# [4] = target: Calcium/calmodulin-dependent protein kinase type 1B (Homo sapiens) (UniProt Q6P2M8); conditions: Compound concentration 1000.0 nM
# Sequence of Calcium/calmodulin-dependent protein kinase type 1B (Homo sapiens) (Q6P2M8 whole entry): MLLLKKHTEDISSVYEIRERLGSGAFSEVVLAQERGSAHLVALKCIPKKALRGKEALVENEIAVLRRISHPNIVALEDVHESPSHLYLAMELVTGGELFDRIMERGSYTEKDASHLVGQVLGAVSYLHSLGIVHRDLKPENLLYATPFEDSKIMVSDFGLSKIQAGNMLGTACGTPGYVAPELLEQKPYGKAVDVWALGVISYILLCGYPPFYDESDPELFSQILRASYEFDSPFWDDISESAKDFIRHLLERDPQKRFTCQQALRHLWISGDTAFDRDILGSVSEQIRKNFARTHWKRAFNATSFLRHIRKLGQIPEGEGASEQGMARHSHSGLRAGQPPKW
# [5] = target: Cyclin-dependent kinase-like 5 (Homo sapiens) (UniProt O76039); conditions: Compound concentration 1000.0 nM
# [6] = target: Death-associated protein kinase 3 (Homo sapiens) (UniProt O43293); conditions: Compound concentration 1000.0 nM
# [7] = tested on: Epidermal growth factor receptor (Homo sapiens), P00533 [UNDEFINED MUTATION]; conditions: Compound concentration 1000.0 nM
# [8] = tested on: Epidermal growth factor receptor (Homo sapiens), P00533 [L858R,T790M]; conditions: Compound concentration 1000.0 nM
# [9] = target: Ephrin type-A receptor 1 (Homo sapiens) (UniProt P21709); conditions: Compound concentration 1000.0 nM
# Sequence of Ephrin type-A receptor 1 (Homo sapiens) (P21709 whole entry): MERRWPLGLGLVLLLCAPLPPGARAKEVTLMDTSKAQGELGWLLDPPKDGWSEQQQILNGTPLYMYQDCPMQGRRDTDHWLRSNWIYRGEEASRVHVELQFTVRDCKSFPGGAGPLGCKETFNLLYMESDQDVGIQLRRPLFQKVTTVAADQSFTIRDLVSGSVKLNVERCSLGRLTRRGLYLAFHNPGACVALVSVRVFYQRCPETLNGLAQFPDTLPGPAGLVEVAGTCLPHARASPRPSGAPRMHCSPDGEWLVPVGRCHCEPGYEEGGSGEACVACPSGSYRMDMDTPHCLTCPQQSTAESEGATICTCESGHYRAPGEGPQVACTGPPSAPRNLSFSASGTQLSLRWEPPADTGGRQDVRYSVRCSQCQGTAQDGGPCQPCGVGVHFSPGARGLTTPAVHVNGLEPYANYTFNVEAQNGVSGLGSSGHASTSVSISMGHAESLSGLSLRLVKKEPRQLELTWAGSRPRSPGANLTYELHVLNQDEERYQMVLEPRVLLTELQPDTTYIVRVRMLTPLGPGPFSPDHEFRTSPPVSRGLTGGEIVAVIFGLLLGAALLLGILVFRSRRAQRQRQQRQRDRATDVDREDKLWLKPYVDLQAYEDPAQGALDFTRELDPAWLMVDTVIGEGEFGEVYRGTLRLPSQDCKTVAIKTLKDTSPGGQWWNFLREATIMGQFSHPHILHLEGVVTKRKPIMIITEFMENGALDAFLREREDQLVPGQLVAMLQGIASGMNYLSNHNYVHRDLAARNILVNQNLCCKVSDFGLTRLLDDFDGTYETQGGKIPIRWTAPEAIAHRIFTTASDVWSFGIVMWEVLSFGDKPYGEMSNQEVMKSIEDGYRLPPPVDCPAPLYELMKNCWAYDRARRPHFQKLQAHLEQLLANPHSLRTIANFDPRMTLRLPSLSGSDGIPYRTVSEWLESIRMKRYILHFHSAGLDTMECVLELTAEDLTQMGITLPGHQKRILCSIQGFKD
# [10] = target: Ephrin type-A receptor 8 (Homo sapiens) (UniProt P29322); conditions: Compound concentration 1000.0 nM
# [11] = target: Receptor tyrosine-protein kinase erbB-4 (Homo sapiens) (UniProt Q15303); conditions: Compound concentration 1000.0 nM
# [12] = target: Mitogen-activated protein kinase 6 (Homo sapiens) (UniProt Q16659); conditions: Compound concentration 1000.0 nM
# [13] = target: Fibroblast growth factor receptor 1 (Homo sapiens) (UniProt P11362); conditions: Compound concentration 1000.0 nM
# [14] = tested on: Receptor-type tyrosine-protein kinase FLT3 (Homo sapiens), P36888 [UNDEFINED MUTATION]; conditions: Compound concentration 1000.0 nM
# Sequence of Receptor-type tyrosine-protein kinase FLT3 (Homo sapiens), P36888 [UNDEFINED MUTATION] (P36888 whole entry, looked up, change not shown): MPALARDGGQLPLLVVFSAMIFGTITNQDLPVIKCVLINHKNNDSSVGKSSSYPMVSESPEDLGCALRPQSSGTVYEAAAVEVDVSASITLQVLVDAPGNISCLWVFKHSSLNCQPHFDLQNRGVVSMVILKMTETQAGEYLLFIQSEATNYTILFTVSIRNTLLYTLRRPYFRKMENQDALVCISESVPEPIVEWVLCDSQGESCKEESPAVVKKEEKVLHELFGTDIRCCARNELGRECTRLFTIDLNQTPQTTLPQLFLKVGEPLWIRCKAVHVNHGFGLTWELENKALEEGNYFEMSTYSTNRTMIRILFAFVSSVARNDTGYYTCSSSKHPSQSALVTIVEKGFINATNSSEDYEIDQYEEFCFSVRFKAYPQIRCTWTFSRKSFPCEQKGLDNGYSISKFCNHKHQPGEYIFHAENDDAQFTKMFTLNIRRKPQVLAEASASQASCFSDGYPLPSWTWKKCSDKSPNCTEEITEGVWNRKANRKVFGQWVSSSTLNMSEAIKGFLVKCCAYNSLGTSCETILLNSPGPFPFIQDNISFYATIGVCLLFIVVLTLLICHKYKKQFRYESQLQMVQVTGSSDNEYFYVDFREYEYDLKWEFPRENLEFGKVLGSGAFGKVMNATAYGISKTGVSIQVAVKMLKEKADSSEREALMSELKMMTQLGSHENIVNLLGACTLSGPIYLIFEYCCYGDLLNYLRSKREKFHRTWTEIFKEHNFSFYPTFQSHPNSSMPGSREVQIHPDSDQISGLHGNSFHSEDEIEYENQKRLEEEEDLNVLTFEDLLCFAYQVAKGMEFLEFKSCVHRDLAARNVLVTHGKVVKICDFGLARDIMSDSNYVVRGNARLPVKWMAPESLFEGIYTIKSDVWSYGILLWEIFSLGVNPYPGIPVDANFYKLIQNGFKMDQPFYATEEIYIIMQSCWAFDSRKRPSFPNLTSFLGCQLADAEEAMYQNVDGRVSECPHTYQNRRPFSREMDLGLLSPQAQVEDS
# [15] = target: G protein-coupled receptor kinase 3 (Homo sapiens) (UniProt P35626); conditions: Compound concentration 1000.0 nM
# [16] = target: Homeodomain-interacting protein kinase 2 (Homo sapiens) (UniProt Q9H2X6); conditions: Compound concentration 1000.0 nM
# [17] = target: Tyrosine-protein kinase ITK/TSK (Homo sapiens) (UniProt Q08881); conditions: Compound concentration 1000.0 nM
# [18] = target: Tyrosine-protein kinase JAK1 (Homo sapiens) (UniProt P23458); conditions: Compound concentration 1000.0 nM
# [19] = target: Tyrosine-protein kinase JAK3 (Homo sapiens) (UniProt P52333); conditions: Compound concentration 1000.0 nM
# [20] = target: Mast/stem cell growth factor receptor Kit (Homo sapiens) (UniProt P10721); conditions: Compound concentration 1000.0 nM
# [21] = target: Serine/threonine-protein kinase 10 (Homo sapiens) (UniProt O94804); conditions: Compound concentration 1000.0 nM
# [22] = target: MAP kinase-activated protein kinase 5 (Homo sapiens) (UniProt Q8IW41); conditions: Compound concentration 1000.0 nM
# [23] = target: Myosin-IIIb (Homo sapiens) (UniProt Q8WXR4); conditions: Compound concentration 1000.0 nM
# [24] = target: Serine/threonine-protein kinase Nek3 (Homo sapiens) (UniProt P51956); conditions: Compound concentration 1000.0 nM
# [25] = target: Mitogen-activated protein kinase 14 (Homo sapiens) (UniProt Q16539); conditions: Compound concentration 1000.0 nM
# [26] = target: Serine/threonine-protein kinase PAK 6 (Homo sapiens) (UniProt Q9NQU5); conditions: Compound concentration 1000.0 nM
# [27] = tested on: Phosphatidylinositol 4,5-bisphosphate 3-kinase catalytic subunit alpha isoform (Homo sapiens), P42336 [H1047L]; conditions: Compound concentration 1000.0 nM
# Sequence of Phosphatidylinositol 4,5-bisphosphate 3-kinase catalytic subunit alpha isoform (Homo sapiens), P42336 [H1047L] (P42336 whole entry H1047L, canonical isoform): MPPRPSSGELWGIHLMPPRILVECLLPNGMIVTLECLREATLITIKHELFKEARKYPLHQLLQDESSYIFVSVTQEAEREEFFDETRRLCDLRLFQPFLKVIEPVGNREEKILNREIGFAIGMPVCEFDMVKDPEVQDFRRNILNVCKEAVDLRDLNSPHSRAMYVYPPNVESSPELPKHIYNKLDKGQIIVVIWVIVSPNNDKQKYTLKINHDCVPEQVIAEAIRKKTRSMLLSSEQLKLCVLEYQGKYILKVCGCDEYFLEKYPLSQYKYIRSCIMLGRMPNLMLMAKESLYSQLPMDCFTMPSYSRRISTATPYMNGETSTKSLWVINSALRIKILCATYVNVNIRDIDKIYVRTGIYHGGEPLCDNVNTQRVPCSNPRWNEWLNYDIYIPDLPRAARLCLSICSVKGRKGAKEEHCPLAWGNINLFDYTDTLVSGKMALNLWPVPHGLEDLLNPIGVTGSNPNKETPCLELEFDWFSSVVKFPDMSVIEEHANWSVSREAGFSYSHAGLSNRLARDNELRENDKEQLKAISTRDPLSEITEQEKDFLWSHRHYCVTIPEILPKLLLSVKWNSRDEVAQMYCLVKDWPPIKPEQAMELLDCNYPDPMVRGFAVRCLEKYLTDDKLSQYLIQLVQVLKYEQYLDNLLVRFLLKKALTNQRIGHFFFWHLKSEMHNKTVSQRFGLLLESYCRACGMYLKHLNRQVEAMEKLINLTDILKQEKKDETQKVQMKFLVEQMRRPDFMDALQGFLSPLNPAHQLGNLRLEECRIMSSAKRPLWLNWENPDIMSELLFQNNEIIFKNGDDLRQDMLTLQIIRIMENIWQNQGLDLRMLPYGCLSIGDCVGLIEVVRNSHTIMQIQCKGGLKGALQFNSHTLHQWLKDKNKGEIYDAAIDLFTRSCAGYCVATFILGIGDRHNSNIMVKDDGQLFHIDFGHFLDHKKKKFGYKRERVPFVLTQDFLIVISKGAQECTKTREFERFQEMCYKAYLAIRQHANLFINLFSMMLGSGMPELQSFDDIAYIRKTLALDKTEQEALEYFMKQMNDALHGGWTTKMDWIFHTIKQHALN
# [28] = target: cAMP-dependent protein kinase catalytic subunit beta (Homo sapiens) (UniProt P22694); conditions: Compound concentration 1000.0 nM
# [29] = target: Membrane-associated tyrosine- and threonine-specific cdc2-inhibitory kinase (Homo sapiens) (UniProt Q99640); conditions: Compound concentration 1000.0 nM
# [30] = target: cGMP-dependent protein kinase 2 (Homo sapiens) (UniProt Q13237); conditions: Compound concentration 1000.0 nM
# [31] = target: cAMP-dependent protein kinase catalytic subunit PRKX (Homo sapiens) (UniProt P51817); conditions: Compound concentration 1000.0 nM
# [32] = tested on: Proto-oncogene tyrosine-protein kinase receptor Ret (Homo sapiens), P07949 [V804L]; conditions: Compound concentration 1000.0 nM
# [33] = target: Serine/threonine-protein kinase RIO3 (Homo sapiens) (UniProt O14730); conditions: Compound concentration 1000.0 nM
# [34] = target: Ribosomal protein S6 kinase alpha-3 (Homo sapiens) (UniProt P51812); conditions: Compound concentration 1000.0 nM
# [35] = target: Serine/threonine-protein kinase Sgk1 (Homo sapiens) (UniProt O00141); conditions: Compound concentration 1000.0 nM
# [36] = target: Mitogen-activated protein kinase kinase kinase 7 (Homo sapiens) (UniProt O43318); conditions: Compound concentration 1000.0 nM
# [37] = target: Dual specificity testis-specific protein kinase 1 (Homo sapiens) (UniProt Q15569); conditions: Compound concentration 1000.0 nM
# [38] = target: TGF-beta receptor type-1 (Homo sapiens) (UniProt P36897); conditions: Compound concentration 1000.0 nM
# [39] = target: BDNF/NT-3 growth factors receptor (Homo sapiens) (UniProt Q16620); conditions: Compound concentration 1000.0 nM
# [40] = target: Transient receptor potential cation channel subfamily M member 6 (Homo sapiens) (UniProt Q9BX84); conditions: Compound concentration 1000.0 nM
# [41] = target: Serine/threonine-protein kinase WNK1 (Homo sapiens) (UniProt Q9H4A3); conditions: Compound concentration 1000.0 nM
# [42] = target: Serine/threonine-protein kinase 25 (Homo sapiens) (UniProt O00506); conditions: Compound concentration 1000.0 nM
# [43] = target: Mitogen-activated protein kinase kinase kinase 19 (Homo sapiens) (UniProt Q56UN5); conditions: Compound concentration 1000.0 nM
# [44] = target: Histamine H1 receptor (Homo sapiens) (UniProt P35367); conditions: Compound concentration 10.0 uM
# [45] = target: Alpha-1A adrenergic receptor (Homo sapiens) (UniProt P35348); conditions: Compound concentration 10.0 uM
# Sequence of Alpha-1A adrenergic receptor (Homo sapiens) (P35348 whole entry): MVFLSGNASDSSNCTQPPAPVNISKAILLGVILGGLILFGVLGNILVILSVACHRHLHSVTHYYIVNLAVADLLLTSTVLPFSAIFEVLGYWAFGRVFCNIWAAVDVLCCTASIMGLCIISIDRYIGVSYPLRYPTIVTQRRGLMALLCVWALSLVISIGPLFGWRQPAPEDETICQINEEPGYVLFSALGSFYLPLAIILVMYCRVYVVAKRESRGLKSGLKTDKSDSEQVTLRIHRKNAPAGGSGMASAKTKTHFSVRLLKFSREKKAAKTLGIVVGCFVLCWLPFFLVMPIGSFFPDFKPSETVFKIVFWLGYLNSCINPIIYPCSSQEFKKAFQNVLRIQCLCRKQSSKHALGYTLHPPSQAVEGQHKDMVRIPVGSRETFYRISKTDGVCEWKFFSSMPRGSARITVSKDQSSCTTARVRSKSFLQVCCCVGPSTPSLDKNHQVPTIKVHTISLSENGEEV
# Sequence of BMP-2-inducible protein kinase (Homo sapiens) (Q9NSY1 whole entry, looked up): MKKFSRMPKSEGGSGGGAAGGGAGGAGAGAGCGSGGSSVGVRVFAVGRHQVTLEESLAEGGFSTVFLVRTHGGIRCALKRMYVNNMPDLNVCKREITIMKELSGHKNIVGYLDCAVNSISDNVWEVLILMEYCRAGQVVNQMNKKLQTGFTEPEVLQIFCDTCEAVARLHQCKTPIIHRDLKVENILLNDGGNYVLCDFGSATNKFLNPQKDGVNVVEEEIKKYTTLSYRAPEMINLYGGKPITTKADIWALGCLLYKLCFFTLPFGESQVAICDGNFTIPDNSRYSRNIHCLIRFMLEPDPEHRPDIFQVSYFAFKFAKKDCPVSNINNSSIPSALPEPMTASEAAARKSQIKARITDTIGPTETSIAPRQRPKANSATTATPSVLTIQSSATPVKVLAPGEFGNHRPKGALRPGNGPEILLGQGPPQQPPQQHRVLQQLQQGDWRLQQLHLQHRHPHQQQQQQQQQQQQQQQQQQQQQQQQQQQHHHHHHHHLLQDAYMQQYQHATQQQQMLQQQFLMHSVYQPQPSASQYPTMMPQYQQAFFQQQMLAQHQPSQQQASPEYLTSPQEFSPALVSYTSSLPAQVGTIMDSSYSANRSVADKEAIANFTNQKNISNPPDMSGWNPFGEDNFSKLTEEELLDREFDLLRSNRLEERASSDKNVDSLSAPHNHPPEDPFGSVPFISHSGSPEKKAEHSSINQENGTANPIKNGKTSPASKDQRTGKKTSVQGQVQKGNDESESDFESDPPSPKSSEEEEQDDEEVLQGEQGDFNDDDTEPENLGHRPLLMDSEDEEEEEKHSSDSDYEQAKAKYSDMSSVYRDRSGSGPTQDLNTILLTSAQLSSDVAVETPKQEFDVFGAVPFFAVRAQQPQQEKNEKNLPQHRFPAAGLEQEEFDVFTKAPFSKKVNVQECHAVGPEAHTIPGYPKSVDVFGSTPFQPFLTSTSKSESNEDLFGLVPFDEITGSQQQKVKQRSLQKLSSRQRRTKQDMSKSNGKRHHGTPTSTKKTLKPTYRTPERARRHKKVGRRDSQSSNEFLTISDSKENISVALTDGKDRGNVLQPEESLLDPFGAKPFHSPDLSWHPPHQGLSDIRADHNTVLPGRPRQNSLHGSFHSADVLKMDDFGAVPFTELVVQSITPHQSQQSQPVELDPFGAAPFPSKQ
compound,measurement,setting,value
CO[C@@H](C)c1c(Nc2ccc([C@H](N(C)C(=O)C3CCS(=O)(=O)CC3)C(F)(F)F)cc2)cnc2cc(Cl)nn12 [NVS-MALT1],residual activity,[1],87%
same,residual activity,[2],76%
same,residual activity,[3],89%
same,residual activity,[4],100%
same,residual activity,[5],95%
same,residual activity,[6],91%
same,residual activity,[7],99%
same,residual activity,[8],80%
same,residual activity,[9],100%
same,residual activity,[10],91%
same,residual activity,[11],84%
same,residual activity,[12],92%
same,residual activity,[13],74%
same,residual activity,[14],71%
same,residual activity,[15],100%
same,residual activity,[16],100%
same,residual activity,[17],88%
same,residual activity,[18],91%
same,residual activity,[19],99%
same,residual activity,[20],100%
same,residual activity,[21],100%
same,residual activity,[22],100%
same,residual activity,[23],82%
same,residual activity,[24],40%
same,residual activity,[25],88%
same,residual activity,[26],100%
same,residual activity,[27],92%
same,residual activity,[28],81%
same,residual activity,[29],85%
same,residual activity,[30],100%
same,residual activity,[31],88%
same,residual activity,[32],86%
same,residual activity,[33],82%
same,residual activity,[34],87%
same,residual activity,[35],94%
same,residual activity,[36],89%
same,residual activity,[37],85%
same,residual activity,[38],94%
same,residual activity,[39],100%
same,residual activity,[40],100%
same,residual activity,[41],100%
same,residual activity,[42],87%
same,residual activity,[43],91%
same,inhibition,[44],10.2%
same,inhibition,[45],-7.59%
CO[C@@H](C)c1c(Nc2ccc([C@@H](N(C)C(=O)C3CCS(=O)(=O)CC3)C(F)(F)F)cc2)cnc2cc(Cl)nn12 [NVS-MALT1-C],residual activity,[1],78%
same,residual activity,[2],77%
same,residual activity,[3],91%
same,residual activity,[4],100%
same,residual activity,[5],89%
same,residual activity,[6],47%
same,residual activity,[7],87%
same,residual activity,[8],72%
same,residual activity,[9],97%
same,residual activity,[10],91%
same,residual activity,[11],77%
same,residual activity,[12],91%
same,residual activity,[13],91%
same,residual activity,[14],66%
same,residual activity,[15],91%
same,residual activity,[16],100%
same,residual activity,[17],94%
same,residual activity,[18],90%
same,residual activity,[19],98%
same,residual activity,[20],100%
same,residual activity,[21],98%
same,residual activity,[22],100%
same,residual activity,[23],100%
same,residual activity,[24],61%
same,residual activity,[25],83%
same,residual activity,[26],100%
same,residual activity,[27],98%
same,residual activity,[28],89%
same,residual activity,[29],99%
same,residual activity,[30],100%
same,residual activity,[31],84%
same,residual activity,[32],78%
same,residual activity,[33],90%
same,residual activity,[34],100%
same,residual activity,[35],89%
same,residual activity,[36],84%
same,residual activity,[37],83%
same,residual activity,[38],95%
same,residual activity,[39],100%
same,residual activity,[40],100%
same,residual activity,[41],98%
same,residual activity,[42],84%
same,residual activity,[43],77%
same,inhibition,[44],-9.88%
same,inhibition,[45],-3.44%
